# Measured values from patent US20240084044A1, “Heteromultivalent Nucleic Acid Scaffolds and Uses Thereof” (George Mason University, priority 2022, published 2024).
# Bridges are numbered along the chain shown (N, C = ends). Roman numbers before positions name the chains, in order.
# Test system: IL-33 signaling (HEK-Blue IL-33 cells)
# Assay: SEAP reporter assay in HEK-Blue IL-33 reporter cells
# Type: cell-based, human
# Experimental: HEK-Blue® IL-33 (Invivogen, Cat. #hkb-hil33) and IL-1β cells (Invivogen, Cat #hkb-il1bv2) were cultured in T25 and T75 flasks (NUNC, Cat. #156367 and #156499) in DMEM media supplemented with L-glutamine (Gibco, Cat. #11995-065), 10% Fetal Bovine Serum (Gibco, Cat. #10437-028), 1% Penicillin/Streptomycin (Gibco, Cat. #15140-148), and 0.5% Normacin® (Invivogen, Cat. #ant-hr-1). IL-33 cell growth media also included 1 mL of 250× Selectin Cocktail® (Invivogen, Cat. #hb-sel) and IL-1β cell growth media included 100 μg/mL of Zeocin® (Cat #ant-zn-05). Cells were maintained at 37° C. with humidity and 5% CO2 and were passaged upon reaching 80-85% confluency. […]
# IL-33 and IL-1β signaling activation was assessed based on the expression of a SEAP reporter gene. […] Pellet was resuspended in 5 mL test medium (DMEM, 10% heat inactivated FBS, and 1% P/S), cells counted, and concentration adjusted to 2.8×10^5 cell/mL. […] After incubation, SEAP reporter gene phosphatase activity was measured by adding 20 μL of supernatant from each well to 180 μL of QuantiBLUE substrate (Invivogen, Cat #rep-qbs) and incubated an additional 30 min at 37° C. Colorimetric absorbance was measured at 620 nm. […]
# MSTOP bioactivity was determined in a reporter gene cell model. […] After six hours, IL-33 signaling was quantified by absorbance at 620 nm, based on the metabolism of QUANTI-Blue substrate by expressed SEAP secreted into the media.
substance,measurement,setting,value
"MSTOP: 3WJ DNA scaffold whose three DBCO staple strands carry cyclized azidolysine IL-1RAcP hotspot peptides; decoy for IL-33/ST2 (peptide 1 Ac-CKEYGIQRITC-NH2; peptide 2 Ac-AKVGSPKNAVPPC-NH2; peptide 3 Ac-CKGEVAKAAKVKC-NH2; disulfide I:1-I:11, III:1-III:13; thioether II:1-II:13; not fully specified (some residues); also: three peptides held on a 3-way junction DNA scaffold via DBCO staple strands)",reduction in IL-33 induced SEAP expression,"1 μM, 100 pg/mL IL-33, 6 h",~40%
same,inhibition of IL-33 cells compared to IL-1β cells,MSTOP dose curve 10 μM to 10 nM,Significant inhibition
